Test results as given in patent publication US20090258069A1, “Delivery of LFA-1 antagonists to the gastrointestinal system” (priority 2008, published 2009).
“And” between values parts separate entries of the source, which are not always exact repeats. Equal values may be shown once.

Legend:
[1] = test system: Keratoconjunctivitis Sicca (KCS); assay: Canine keratoconjunctivitis sicca (KCS) study, Schirmer tear test and conjunctival biopsy; assay type: in vivo, dog; settings: for Schirmer Tear Test Results (OD), Mean: Dog #1 not included; for Schirmer Tear Test Results (OS), Mean: Dog #7 not included; for Schirmer Tear Test Results (OS), individual dogs: left eye; for Schirmer Tear Test Results (OD), individual dogs: right eye
Text: If dogs had been treated with topical CsA or tacrolimus in the previous six months, they were not enrolled. […] Animals were subjected to an ocular examination once during the initial visit and during five visits over sixteen weeks of the study (Weeks, 2, 4, 8, 12 and 16). The last OE was approximately four weeks after the last dose of Compound 12 and after one month of CsA treatment. The adnexa and anterior portions of both eyes were examined using an indirect opthalmoscope. The eyes were dilated with a mydriatic when applicable, to allow evaluation of the lens and fundus, including the retina. An evaluation using a modified McDonald-Shaddock scoring system was performed in conjunction with the slitlamp ocular examinations at each interval. […] One strip of STT paper was used for each eye for each interval. […] The length, in mm, of wetting below the notch of the paper was recorded. Conjunctival biopsies were taken at the initial (pretreatment) visit and the Week 12 visit. The second biopsy was taken more lateral (approx. 1 mm) to the initial biopsy. Following appropriate preparation a small conjunctival biopsy was taken from the ventral fornix of each eye.

[2] = test system: attachment of Jurkat cells to ICAM-1; assay: T-cell adhesion assay using Jurkat cells; assay type: cell-based, human
Method: A reported LFA-1 antagonist was used as the positive control.
Jurkat cells were labeled with an 8 μM solution of BCECF-AM (2′,7′-bis-(2-carboxyethyl)-5-(and -6)-carboxyfluorescein) in growth media at room temperature for 15 minutes. […] Non-adherent cells were removed by washing and centrifugation at 100 g for 1 minute. Adherent cells were determined as adherent fluorescent units on a fluorescent plate reader.

[3] = Phase 1 clinical trial, tear PK; assay type: in vivo, human
Text: A 48-hour post-dose sample was obtained following Day 1, 14, and 27.

[4] = test system: rats; assay: CNS effects in rats, single bolus IV injection; assay type: in vivo, rat
Text: No effect on any other parameters was observed.

[5] = test system: rats; assay: Respiratory function in rats, single IV bolus, head-out plethysmograph; assay type: in vivo, rat; settings: any dose
[6] = Pilot ocular tolerance of topically administered Compound 12 in dogs-PK; assay type: in vivo, dog; settings: dog, vitreous fluid, topical; TID for three days with 3.5 mg/eye (10%); ranged from BLOQ; read-out: levels in the vitreous fluid
[7] = test system: dogs; assay: as above; assay type: in vivo, dog; settings: up to 10% strength at 3 doses/day
[8] = Solubility studies; assay type: physicochemical
[9] = Skin transport studies on microtomed human skin; assay type: in vitro ADME; settings: 1% (w/w) prototypes; [^14C]-Compound 12
Text: Prototypes have been developed and tested on microtomed human skin from elective surgery at 1% (w/w). The forms include gels, ointment, or lotion. […] Skin transport studies performed with LC/MS/MS analysis indicate high Compound 12 levels in epidermis and dermis and low levels in the receiver.

[10] = Pilot mini-pig dermal study; assay type: in vivo; settings: minipig, plasma, topical, 10 mg/cm^2 of 1% formulation over approximately 50 cm^2; all groups; below LLOQ; read-out: Plasma levels
Text: (§1) One pig/dose formulation was used. In-life PK analysis was completed.

[11] = test system: mini-pigs; assay: Pilot mini-pig dermal study; assay type: in vivo; settings: DMSO, gel, ointment, lotion at 1%; TID 7 days, 10 mg/cm^2 on about 50 cm^2
Text: as §1

[12] = in vivo; settings: rabbit, topical or ocular
[13] = test system: dogs; assay: 13-week ocular toxicity study in dogs with 4-week recovery (with TK); settings: (3%)
[14] = test system: rabbits; assay: 13-week ocular toxicity study in rabbits with 4-week recovery (with TK); settings: (3%)
[15] = Plasma PK after a single topical ocular instillation (dogs and rabbits)
[16] = 13-week IV toxicity study in rats with 4-week recovery (with plasma exposure); settings: rat; for AUC: AUC0-n
[17] = Week 1, 1% solution (Formulation 15) 0.35 mg/eye TID, one grid row per dog
[18] = Week 16, Compound 12 stopped at week 12, then 4 weeks CsA 0.2% ointment TID
[19] = Weeks 1-12 of Compound 12 administration
[20] = in vivo, topical or ocular, 1.05 mg
[21] = 3 mg/kg, 3 mg/kg daily IV bolus, Day 1
[22] = 3 mg/kg, 3 mg/kg daily IV bolus, Week 13
[23] = 10 mg/kg, 10 mg/kg daily IV bolus, Day 1
[24] = 10 mg/kg, 10 mg/kg daily IV bolus, Week 13
[25] = 30 mg/kg, 30 mg/kg daily IV bolus, Day 1
[26] = 30 mg/kg, 30 mg/kg daily IV bolus, Week 13

CS(=O)(=O)c1cccc(C[C@H](NC(=O)c2c(Cl)cc3c(c2Cl)CCN(C(=O)c2ccc4ccoc4c2)C3)C(=O)O)c1 [Compound 12]
Schirmer Tear Test Results (OD), Mean ([1]; Week 1): 5.5 mm
Schirmer Tear Test Results (OS), Mean ([1]; Week 1): 4.2 mm
Schirmer Tear Test Results (OS), individual dogs [1, 17]: 9 mm (2×) and 18 mm and 0 mm (3×) and 7 mm
Schirmer Tear Test Results (OD), individual dogs [1, 17]: 8 mm (2×) and 6 mm (2×) and 15 mm and 0 mm and 5 mm
Schirmer Tear Test Results (OD), Mean ([1]; Week 2): 7.8 mm
Schirmer Tear Test Results (OS), Mean ([1]; Week 2): 4.8 mm
Schirmer Tear Test Results (OS), individual dogs ([1]; Week 2, 1% solution TID): 4 mm and 0 mm (2×) and 14 mm and 3 mm and 8 mm
Schirmer Tear Test Results (OD), individual dogs ([1]; Week 2, 1% solution TID): 10 mm and 2 mm (2×) and 18 mm and 11 mm (3×)
Schirmer Tear Test Results (OD), Mean ([1]; Week 4): 7.0 mm
Schirmer Tear Test Results (OS), Mean ([1]; Week 4): 6.7 mm
Schirmer Tear Test Results (OS), individual dogs ([1]; Week 4, 1% solution TID): 14 mm (2×) and 0 mm (2×) and 7 mm and 5 mm
Schirmer Tear Test Results (OD), individual dogs ([1]; Week 4, 1% solution TID): 15 mm and 2 mm and 12 mm and 0 mm and 5 mm and 10 mm (2×)
Schirmer Tear Test Results (OD), Mean ([1]; Week 8): 8.5 mm
Schirmer Tear Test Results (OS), Mean ([1]; Week 8): 6.5 mm
Schirmer Tear Test Results (OS), individual dogs ([1]; Week 8, 1% solution TID): 8 mm (2×) and 19 mm and 0 mm and 2 mm and 17 mm and 6 mm
Schirmer Tear Test Results (OD), individual dogs ([1]; Week 8, 1% solution TID): 17 mm and 1 mm and 16 mm and 8 mm and 7 mm (2×) and 11 mm
Schirmer Tear Test Results (OD), Mean ([1]; Week 12): 8.8 mm
Schirmer Tear Test Results (OS), Mean ([1]; Week 12): 8.7 mm
Schirmer Tear Test Results (OS), individual dogs ([1]; Week 12, 1% solution TID): 8 mm (2×) and 18 mm and 3 mm and 7 mm and 15 mm and 4 mm
Schirmer Tear Test Results (OD), individual dogs ([1]; Week 12, 1% solution TID): 16 mm and 0 mm and 13 mm (2×) and 8 mm and 7 mm and 9 mm
Schirmer Tear Test Results (OS), Mean ([1]; Week 16 (after 4 weeks CsA)): 11.0 mm
Schirmer Tear Test Results (OS), individual dogs [1, 18]: 17 mm and 18 mm and 3 mm and 5 mm and 16 mm and 7 mm and 19 mm
Schirmer Tear Test Results (OD), individual dogs [1, 18]: 18 mm and 12 mm (2×) and 8 mm (3×) and 22** mm
Maximum-Minimum Analysis, maximal change in STT, OD, per dog [1, 19]: 3 mm and 8 mm (3×) and −4 mm and 5 mm
Maximum-Minimum Analysis, maximal change in STT, OS, per dog [1, 19]: 7 mm (2×) and 11 mm and 3 mm and 10 mm and 6 mm
Histopathological evaluation of conjunctival biopsies before and after treatment ([1]; pretreatment vs Week 12): attenuation of lymphocyte accumulation
Schirmer test scores over pretreatment ([1]; week 12): Significant improvement
Jurkat cell attachment to ICAM-1 ([2]; 30 min preincubation, 1 h at 37° C.): inhibition of Jurkat cell attachment with increasing dose
dose response curve and IC50, Jurkat cell attachment ([2]; vs positive control): comparable to that of the known direct competitive LFA-1 antagonist
accumulation in tear with multiple ocular dose administration ([3]; BID and TID): no obvious evidence of accumulation
tear AUC and Cmax values ([3]; dosing day 1, maintained throughout the trial): Dose related increases
CNS observation ([4]; 10.0 mg/kg IV, 1 minute to 6 hours postdose in 2/6 animals at each time point): Transient miosis
effect on any other CNS parameters ([4]; single bolus IV): No effect
respiratory function (tidal volume, respiration rate, minute volume) [5]: No adverse changes
concentration at 3 days [6]: ≤ 18 ng/mL
ocular safety and tolerability [7]: safe and well tolerated
solubility ([8]; ethanol/glycol/transcutol solution): 10 % (w/w)
solubility ([8]; water/glycol/transcutol solution): 2 % (w/w)
Compound 12 in dermis [9]: greater than 10 micromolar
dose penetration [9]: 2-4%
concentration at 7 days [10]: < 0.5 ng/mL
toxicity, dermal formulations [11]: No toxicity
AUC ([12]; 0.105 mg): 18900 ng·h/mL
Cmax ([12]; 0.105 mg): 34000 ng/mL
AUC ([12]; 0.35 mg): 18900 ng·h/mL
Cmax ([12]; 0.35 mg): 21500 ng/mL
NOAEL [13]: 1.05 mg/eye/3× per day
NOAEL [14]: 1.05 mg/eye/3× per day
AUC [15, 20]: 22.9 ± 10.1 ng·h/mL
Cmax [15, 20]: 38.9 ± 19.7 ng/mL
time of decline of plasma concentration to baseline levels ([15]; topical ocular instillation): about 4 hours
time of maximum plasma concentration post-dose ([15]; topical ocular instillation): about 0.25 hrs
AUC [16, 21]: 148 ng·h/mL
AUC [16, 22]: 241 ng·h/mL
Cmax [16, 21]: 305 ng/mL
Cmax [16, 22]: 378 ng/mL
AUC [16, 23]: 536 ng·h/mL
AUC [16, 24]: 907 ng·h/mL
Cmax [16, 23]: 1050 ng/mL
Cmax [16, 24]: 1690 ng/mL
AUC [16, 25]: 2350 ng·h/mL
AUC [16, 26]: 7470 ng·h/mL
Cmax [16, 25]: 5120 ng/mL
Cmax [16, 26]: 16900 ng/mL
